Reference: patent US6583143B2, “CRF receptor antagonists and methods relating thereto” (Neurocrine Biosciences, Inc., priority 2000, dated 2003)

Target: T1, human CRF receptors (Homo sapiens, UniProt P34998)
T1 construct: expressed in transfected cells; membrane suspension of stably transfected cells
T1 sequence (P34998 24-415): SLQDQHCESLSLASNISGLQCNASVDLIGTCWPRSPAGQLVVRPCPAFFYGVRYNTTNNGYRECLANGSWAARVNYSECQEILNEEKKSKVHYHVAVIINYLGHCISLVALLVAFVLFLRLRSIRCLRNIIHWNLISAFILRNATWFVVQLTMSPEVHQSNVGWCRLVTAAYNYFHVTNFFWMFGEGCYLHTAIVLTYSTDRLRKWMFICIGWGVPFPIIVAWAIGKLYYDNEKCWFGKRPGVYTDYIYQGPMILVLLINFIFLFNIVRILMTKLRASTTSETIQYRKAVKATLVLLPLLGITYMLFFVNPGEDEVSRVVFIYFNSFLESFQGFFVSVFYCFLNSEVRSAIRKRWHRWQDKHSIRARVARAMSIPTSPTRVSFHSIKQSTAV
Test: CRF receptor radioligand binding assay (displacement of [125I]tyrosine-ovine CRF)
Conditions: CRF receptor binding affinity, assayed by the methods of Example 9
From the text: The effectiveness of a compound as a CRF receptor antagonist may be determined by various assay methods. Suitable CRF antagonists of this invention are capable of inhibiting the specific binding of CRF to its receptor and antagonizing activities associated with CRF. A compound of structure (I) may be assessed for activity as a CRF antagonist by one or more generally accepted assays for this purpose, including (but not limited to) the assays disclosed by DeSouza et al. (J. Neuroscience 7:88, 1987) and Battaglia et al. (Synapse 1:572, 1987). […] CRF receptor affinity may be determined by binding studies that measure the ability of a compound to inhibit the binding of a radiolabeled CRF (e.g., [^125I]tyrosine-CRF) to its receptor (e.g., receptors prepared from rat cerebral cortex membranes). […]
The compounds of this invention may be evaluated for binding activity to the CRF receptor by a standard radioligand binding assay as generally described by DeSouza et al. (J. Neurosci. 7:88-100, 1987). […]
More specifically, the binding assay is performed in 1.5 ml Eppendorf tubes using approximately 1×10^6 cells per tube stably transfected with human CRF receptors. […] Following two washes of the pellets, the tubes are cut just above the pellet and monitored in a gamma counter for radioactivity at approximately 80% efficiency. […]

Ki: < 100 nM
Compound: CCCC(CCC)N1N=C(C)n2nc(-c3ccc(OC)cc3C)c3nc(C)cc1c32 [Compound 8-3]
